Experimental data from the supplement of paper PMC10307832.

Tests used:
Assay in all cases: relative viability (nuclei count vs DMSO), 5 days (fraction); higher = more cells survive
[1] = compound: C1=CC(=CC=C1NC(=S)NNC2=C(C=C(C=C2[N+](=O)[O-])C(F)(F)F)[N+](=O)[O-])F [Kobe2602] + CC1(C)CCC(c2ccc(Cl)cc2)=C(CN2CCN(c3ccc(C(=O)NS(=O)(=O)c4ccc(N[C@H](CCN5CCOCC5)CSc5ccccc5)c(S(=O)(=O)C(F)(F)F)c4)cc3)CC2)C1 [Navitoclax] (partner 0.5 µM)
Procedure, shortened: (§1)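 Cells from lung cancer lines were seeded into 1536-well plates and, one day later, dosed by pin tool. Treatments were either a single drug or a fixed dose of an anchor drug with five library-drug doses (not always all listed) in √10 steps. After 5 days, nuclei were stained in a one-step fixation (final 0.05% Triton X-100, 1% formaldehyde, 1 ug/ml Hoechst) and counted on 4× images, and relative viability is the treated-to-vehicle nuclei ratio, as the median of duplicate plates.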

[2] = compound: O[C@@H](COc1cccc2ncccc12)CN1CCN([C@@H]2c3ccccc3[C@@H]3[C@H](c4ccccc42)C3(F)F)CC1 [Zosuquidar] + CC(=O)c1c(C)c2cnc(Nc3ccc(N4CCNCC4)cn3)nc2n(C2CCCC2)c1=O [Palbociclib] (partner 0.5 µM)
Procedure, shortened: as §1

[3] = compound: COc1cc2nccc(Oc3ccc(NC(=O)C4(C(=O)Nc5ccc(F)cc5)CC4)cc3)c2cc1OC [Cabozantinib] + CC(=O)c1c(C)c2cnc(Nc3ccc(N4CCNCC4)cn3)nc2n(C2CCCC2)c1=O [Palbociclib] (partner 0.5 µM)
Procedure, shortened: as §1

[4] = compound: C1=CC(=CC=C1NC(=S)NNC2=C(C=C(C=C2[N+](=O)[O-])C(F)(F)F)[N+](=O)[O-])F [Kobe2602] + NC(=O)Nc1cc(-c2cccc(F)c2)sc1C(=O)N[C@H]1CCCNC1 [AZD7762] (partner 0.2 µM)
Procedure, shortened: as §1

| Cell Line | relative viability ([1]; first compound 0.2 µM) | relative viability ([1]; first compound 0.6325 µM) | relative viability ([1]; first compound 2 µM) | relative viability ([1]; first compound 6.325 µM) | relative viability ([1]; first compound 20 µM) | relative viability ([2]; first compound 0.01 µM) | relative viability ([2]; first compound 0.03162 µM) | relative viability ([2]; first compound 0.1 µM) | relative viability ([2]; first compound 0.3162 µM) | relative viability ([2]; first compound 1 µM) | relative viability ([3]; first compound 0.02 µM) | relative viability ([3]; first compound 0.06325 µM) | relative viability ([3]; first compound 0.2 µM) | relative viability ([3]; first compound 0.6325 µM) | relative viability ([3]; first compound 2 µM) | relative viability ([4]; first compound 0.2 µM) | relative viability ([4]; first compound 0.6325 µM) | relative viability ([4]; first compound 2 µM) | relative viability ([4]; first compound 6.325 µM) | relative viability ([4]; first compound 20 µM) |
| --- | --- | --- | --- | --- | --- | --- | --- | --- | --- | --- | --- | --- | --- | --- | --- | --- | --- | --- | --- | --- |
| LOU-NH91 | 0.702 | 0.816 | 0.644 | 0.697 | 0.68 | 0.488 | 0.539 | 0.529 | 0.552 | 0.499 | 0.527 | 0.518 | 0.558 | 0.549 | 0.557 | 0.739 | 0.792 | 0.717 | 0.758 | 0.716 |
| NCI-H2170 | 0.65 | 0.597 | 0.56 | 0.57 | 0.622 | 0.364 | 0.42 | 0.397 | 0.426 | 0.379 | 0.408 | 0.407 | 0.355 | 0.369 | 0.438 | 0.9 | 0.875 | 0.869 | 0.823 | 0.886 |
| NCI-H460 | 1.12 | 1.16 | 1.19 | 1.1 | 1.06 | 0.15 | 0.18 | 0.203 | 0.171 | 0.19 | 0.168 | 0.243 | 0.245 | 0.187 | 0.165 | 0.64 | 0.756 | 0.681 | 0.652 | 0.56 |
| EPLC-272H | 1.07 | 1.17 | 1.21 | 1.45 | 0.045 | 0.32 | 0.362 | 0.298 | 0.31 | 0.336 | 0.3 | 0.317 | 0.277 | 0.34 | 0.305 | 0.349 | 0.212 | 0.187 | 0.24 | 0.282 |
| A-427 | 1 | 0.945 | 0.934 | 0.97 | 0.459 | 0.542 | 0.522 | 0.552 | 0.566 | 0.51 | 0.524 | 0.584 | 0.521 | 0.493 | 0.527 | 0.784 | 0.809 | 0.808 | 0.812 | 0.939 |
